Drawing on a melting point compilation (Tetko et al.; mined from patent text by program, amines drawn as free bases though some values may be those of a salt), this text covers melting point for 86 compounds.

Structures are written as SMILES. A value given as a limit tells only on which side of the number the result lay.

On to `CCCCCCC(C)OC(=O)c1ccc(-c2ccc(-c3ccc(C(=O)OC(C)CCCCCC)cc3)cc2)cc1` (stereo unspecified), for which the melting point was 81 to 82 °C.

Take `CCCCCCCCCCCCCCCCCCNC(=O)OCC(CN)NC(=O)OC` (stereo unspecified): the melting point was 128 to 129 °C.

For the compound `CCC(=O)c1ccc(C(CC(=O)Nc2cc(C(N)=O)ccc2C(C)(C)C)CC(C)C)c(OC)c1` (stereo unspecified), the melting point lay in the range of 186 to 187 °C.

For the compound `Cn1cc(C2=C(c3cn(CCCNS(C)(=O)=O)c4ccccc34)C(=O)NC2=O)c2ccccc21`, the melting point is 135 to 138 °C.

Take `O=C(Nc1cn(C2CCCCO2)nc1C(=O)NCCNc1ccccn1)c1ccccn1` (stereo unspecified): the melting point is 178 to 180 °C.

As to `CCC(=O)NC(Cl)C(Cl)(Cl)CCl` (stereo unspecified), the melting point is 167 °C.

`O=C(O)Cc1ccc(CCNS(=O)(=O)c2ccc3ccccc3c2)cc1` had a melting point of 135 to 136 °C.

With `O=C(NCC12CC3CC(CC(C3)C1)C2)c1c(Cl)ccc2nc(N3CCC(C(=O)NO)CC3)ccc12`, the melting point is 189 to 196 °C.

`COC(=O)Oc1ccc(-c2ccc(=O)n(Cc3ccc(Cl)cc3F)c2)cc1` had a melting point of 124 °C.

Compound `O=C(NCc1ccccc1C(=O)O)c1cccc(/C=C/c2nc(C3CCC3)cs2)c1` had a melting point of 185 to 187 °C.

For the compound `CN(C)c1ccc(-c2cccc3c2C2(COc4cc5c(cc42)OCCO5)C(=O)N3Cc2ccccn2)cn1` (stereo unspecified), the melting point lay within 187 to 188 °C.

In the case of `CCCN1N=C2C(=Cc3ccc(Cl)cc3)CSCC2C1c1ccc(Cl)cc1` (stereo unspecified), the melting point lay in the range of 118 to 122 °C.

Turning to `CCOc1ccc(-c2cc(C(F)(F)F)n3ncc(-c4ccncc4)c3n2)cc1C(F)(F)F`, the melting point was 233 °C.

The compound `NC(=O)c1cc(Cl)c(Cl)cc1C(=O)O` gave a melting point of 197 to 201 °C.

Compound `CN(C(=S)Nc1ccc(Cl)cc1Cl)c1cccc(C(=CCCCC(=O)O)c2cccnc2)c1` displayed a melting point of 124 to 126 °C.

`CC(C)n1nc(-c2c(-c3ccccc3)nc(Cl)c(N)c2Cl)ccc1=O` came in with a melting point of 186 to 188 °C.

For the compound `CC(=O)Nc1cc(OCc2ccc3c(c2)OCO3)c(C(=O)CCCCCl)cc1Cl`, the melting point lay within 108 to 110 °C.

For `CC1(C(=O)O)Cc2ccccc2NC1=O` (single isomer, unassigned; (+)), the melting point lay within 139 to 141 °C.

As to `O=C(NC(=O)c1ccccc1Cl)Nc1cc(C(F)(F)F)c(F)cc1Br`, the melting point came to 192 °C.

`c1ccc2c(c1)OCCc1c-2n(CCCCCCN2CCCCC2)c2ccccc12`: the melting point worked out at 110 °C.

`CC(CC=CC=CCC(=O)O)C1CCC2C3CCC4CC(O)CCC4(C)C3CC(O)C12C` (stereo unspecified): the melting point is 208 to 211 °C.

The compound `CN1CCC(c2cc(-c3ccncc3)c(-c3cccc(C(F)(F)F)c3)nn2)CC1` came in with a melting point of 188 to 189 °C.

Turning to `CCCCCN1C(=O)C(CCC(=O)OC)(NC(=O)c2ccc(Cl)c(Cl)c2)c2ccccc21` (stereo unspecified), the melting point is 84 to 114 °C.

As for `O=CCCc1cn(-c2cccnc2)c2ccccc12`, the melting point was 44 to 45 °C.

Turning to `OC(Cc1ccccc1)c1ccccc1Br` (stereo unspecified), the melting point fell in the range of 84 to 85 °C.

Regarding `OCCOc1ccc(C2CCc3ccccc3O2)cc1` (stereo unspecified), the melting point lay within 84 to 85 °C.

In turn, `CC(C)(O)CON1C(C)(C)CC(OC(=O)c2ccc3nn(-c4cc(C(C)(C)C)cc(C(C)(C)c5ccc(Cl)cc5)c4O)nc3c2)CC1(C)C` displayed a melting point of 80 to 90 °C.

As to `C[C@]12CC[C@H](O)CC1=CCC1C2CC[C@@]2(C)C1CC[C@@H]2C1=CC(=O)OC1` (stereo partly specified), the melting point lay within 286 to 287 °C.

With `O=[N+]([O-])c1ccc(-c2ccc(I)cc2C(F)(F)F)c(C(F)(F)F)c1`, the melting point was 67 to 68 °C.

In turn, `COCCOC1CCN(c2ccc(NC(=O)c3cnn(-c4ccc(Cl)cc4)c3C)cc2C#N)CC1` had a melting point of 180 to 182 °C.

As for `COc1c(C)cc(Cc2ccc3c(c2)OCO3)cc1C`, the melting point worked out at 49 °C.

Compound `COc1ccccc1C1Cc2c(ccn2C)C2C(=O)NC(=O)C12` (stereo unspecified) yielded a melting point of 208 to 212 °C.

`Brc1ccc2nc(-c3ccccc3)cn2c1`: the melting point fell in the range of 192 to 194 °C.

`O=S(=O)(Nc1ccc2c(OCc3cccc(-c4ccc(F)cc4)n3)cccc2c1)C(F)(F)F` showed a melting point of 173 to 174 °C.

`O=[N+]([O-])c1ccc(CN2CCC(C(c3ccccc3)c3ccccc3)CC2)cc1` registered a melting point of 130 to 131 °C.

Compound `CCOC(=O)c1cc(-c2ccc(N)cc2)n(-c2ccc(F)cc2)n1` gave a melting point of 158 to 160 °C.

Compound `COc1ccc(-c2csc(Nc3cc4ccccc4cn3)n2)cc1OC` displayed a melting point of 200 to 203 °C.

As to `O=C1C[C@@H]2[C@@H](/C=C/C(=O)C3CCCCC3)[C@H](OC(=O)c3ccccc3)C[C@@H]2O1`, the melting point fell in the range of 151 to 153 °C.

As to `O=C(Nc1cccc(NCc2ccccc2)n1)c1cc(-c2ccc(F)cc2)n(C2CCCCO2)n1` (stereo unspecified), the melting point lay in the range of 139 to 140 °C.

`COC(=O)c1c[nH]c(C(=O)c2cc(OC)cc(OC)c2)c1` showed a melting point of 115 to 120 °C.

With `CCCCOc1c(C(OC(N)=O)C(C)(C)C)n(CC(C)(C)C)c(=O)c2ccc(OCC)cc12` (stereo unspecified), the melting point lay within 138 to 139 °C.

With `CNC(=S)SCCC(=O)N1CCC[C@H]1C(=O)O`, the melting point fell in the range of 127 to 129 °C.

Consider `CCC(c1oc2ccc(F)cc2c(=O)c1-c1ccccc1)n1cnc2c(N)ncnc21` (stereo unspecified), for which the melting point lay in the range of 266 to 272 °C.

The compound `O=C(O)c1ccc2c(c1)S(=O)c1ccccc1O2` (stereo unspecified) returned a melting point of 223 °C.

The compound `c1ccc2c(c1)CCONC2` displayed a melting point of 190 to 192 °C.

Turning to `N#Cc1nsc2ccc([N+](=O)[O-])cc12`, the melting point lay within 168 to 170 °C.

For `COc1ccc(C)cc1NC(=O)Nc1ccc(N2CCN(C(=O)Nc3c(C)cccc3OC)CC2)cc1`, the melting point is 200 to 203 °C.

As for `c1ccc(CN2CCC3(CC(c4ccccc4)=NO3)C2)cc1` (stereo unspecified), the melting point is 31 to 40 °C.

`CC(C)(C)OC(=O)n1cc(C(=O)c2ccn3c2CSC3c2cccnc2)c2ccccc21` (stereo unspecified) had a melting point of 150 to 152 °C.

The compound `O=C(Nc1ccc(Cl)cc1)Nn1cnc2c(O)cccc2c1=O` displayed a melting point of 266 to 268 °C.

The compound `O=C1OC(c2ccccc2)C2CCc3cc(OCCCC(F)(F)F)ccc3N12` (stereo unspecified) gave a melting point of 130 °C.

For `CN(C)Cc1cc(OCCCO)cs1`, the melting point was 32 to 34 °C.

`Cc1cccc(C(=O)Nc2cccc3c2C(=O)N(C2CCC(=O)NC2=O)C3=O)c1` (stereo unspecified): the melting point was 234 to 236 °C.

In turn, `CCOc1cc(Oc2ccc(C(F)(F)F)cn2)ccc1CCCOc1nn(CC)cc1CC(=O)O` yielded a melting point of 82 to 83 °C.

For the compound `CC(C)(C)c1ccc(S(=O)(=O)Nc2ccc(-c3cn(C4CCCC4)c4ncnc(N)c34)cc2O)cc1`, the melting point is 278 to 280 °C.

Turning to `CC(CO)c1ccc(-c2ccc(F)cc2F)c(O)c1` (stereo unspecified), the melting point turned out to be 118 °C.

The compound `CNC(=O)c1ccc(OCC(O)CNC(C)COc2ccc(O)c(C(N)=O)c2)cc1` (stereo unspecified) returned a melting point of 172 to 175 °C.

Compound `O=C1CCC(N2Cc3c(OCc4ccc(Cn5cnnc5)cc4)cccc3C2=O)C(=O)N1` (stereo unspecified) gave a melting point of 173 to 175 °C.

`c1c2c(cc3c1OCO3)CN(CN1CCc3cc4c(cc3C1)OCO4)CC2` displayed a melting point of 116 °C.

The compound `CCOC(=O)c1cn2c3c(c(F)c(F)c(N)c3c1=O)CCN2C` came in with a melting point of 255 to 257 °C.

As to `CC(=O)Nc1nc2cnccc2s1`, the melting point was over 212 °C.

Turning to `CCC1CCC2(C)C(=CCC3C4CC(O)C(=O)C4(C)CCC32)C1` (stereo unspecified), the melting point is 166 to 168 °C.

For the compound `CC1(C)OC(=O)Nc2ccc(-c3cc(F)cc([N+](=O)[O-])c3)cc21`, the melting point fell in the range of 260 to 261 °C.

Consider `COc1cc(OS(=O)(=O)c2ccc(N3CCN(C)C3=O)cc2)cc(OC)c1OC`, for which the melting point lay in the range of 160 to 162 °C.

On to `Nc1c(Cl)cc(C(O)CNCCCCCCOCCc2ccccn2)cc1Cl` (stereo unspecified), for which the melting point lay in the range of 94 to 96 °C.

`O=CC(=O)c1ccc(OCc2ccccc2)c(CO)c1` gave a melting point of 180 to 181 °C.

`N#CC(Cl)Cc1ccccc1C(=O)O` (stereo unspecified) came in with a melting point of 116 to 117 °C.

The compound `CCOCCn1cc(C2CCN(CCOc3ccc(C)cc3C(=O)O)CC2)c2cc(OC)ccc21` returned a melting point of 144 to 146 °C.

In the case of `CC(=O)NCC1CN(c2ccc(N3CCN(c4nc(C)ns4)CC3)c(F)c2)C(=O)O1` (stereo unspecified), the melting point was in the range of 168 to 170 °C.

Compound `O=C(O)COc1cccc2c1CCc1sc(SCc3ccccc3)nc1-2` displayed a melting point of 180 to 182 °C.

`COCCOCCN1C(=O)C2(COc3cc4c(cc32)OCCO4)c2c1ccc1ncsc21` (stereo unspecified): the melting point fell in the range of 156 to 158 °C.

`CCCOc1ccc(S(=O)(=O)N2CCN(C)CC2)cc1-c1nc2cc3ncn(Cc4cccc(Cl)c4)c3cc2c(=O)[nH]1` displayed a melting point of 198 to 200 °C.

In turn, `O=C1CC(=Cc2ccccc2)C(=O)O1` gave a melting point of 167 to 170 °C.

With `O=C1c2ccccc2C(O)N1CCN1CCC(c2noc3cc(F)ccc23)CC1` (stereo unspecified), the melting point was 172 to 173 °C.

`CNc1cc(Cl)c(C=O)c(Cl)c1` had a melting point of 172 to 174 °C.

The compound `CCCCCCc1sc(C(N)=O)c2c1-c1c(cnn1C)CC2` came in with a melting point of 100 to 101 °C.

As for `COc1cc(Nc2c(C#N)cnc3cc(/C=C/CCN4CCCCC4)c(OC)cc23)c(Cl)cc1Cl`, the melting point is 140 to 142 °C.

The compound `Fc1cc(Cl)ccc1NC(=S)C1CCCC=C1N1CCOCC1` (stereo unspecified) displayed a melting point of 86 to 88 °C.

The compound `CCCC(Oc1ccccc1)C(=O)NCCO[N+](=O)[O-]` (stereo unspecified) displayed a melting point of 68 to 70 °C.

Consider `COc1ccc(-c2cccc(COCCc3cccc(NC(N)=O)c3)c2)cc1`, for which the melting point lay in the range of 87 to 89 °C.

For the compound `COC(=O)CC(Cc1c[nH]c2ccccc12)(NC(=O)OC1C2CC3CC(C2)CC1C3)C(=O)O` (stereo unspecified), the melting point was 108 to 109 °C.

In turn, `Cc1cc(C)c(-c2cc(O)c(SCc3ccccc3)c(=O)o2)c(C)c1` yielded a melting point of 134 to 136 °C.

As to `COC(=O)c1ccc(-c2csc(-c3ccc4c(c3)C(C)(C)CCC4(C)C)c2)cc1`, the melting point lay within 108 to 110 °C.

`C=CCCc1ccc(C=NN=Cc2ccc(C)cc2)cc1` returned a melting point of 82 °C.

The compound `COCC1CN=C(c2ccc(OCCCCCCCc3cc(C)no3)cc2)O1` (stereo unspecified) showed a melting point of 53 to 55 °C.

Compound `CC1(C)CCc2c(-c3ccoc3)nc3sc4c(NCc5ccccn5)ncnc4c3c2C1` came in with a melting point of 235 to 236 °C.

One may read the melting point as the temperature, or range, at which the solid turns liquid.
